Patent US11427869B2, “T cell balance gene expression, compositions of matters and methods of use thereof” (THE BROAD INSTITUTE, INC., priority 2015, dated 2022)

Molecular target: T1, Rorγt (Mus musculus, UniProt P51450)
T1 construct: expressed in transfected cells; host or cells: EL4 cells stably transfected with Rorγt vector
T1 sequence (P51450 1-495 isoform P51450-2): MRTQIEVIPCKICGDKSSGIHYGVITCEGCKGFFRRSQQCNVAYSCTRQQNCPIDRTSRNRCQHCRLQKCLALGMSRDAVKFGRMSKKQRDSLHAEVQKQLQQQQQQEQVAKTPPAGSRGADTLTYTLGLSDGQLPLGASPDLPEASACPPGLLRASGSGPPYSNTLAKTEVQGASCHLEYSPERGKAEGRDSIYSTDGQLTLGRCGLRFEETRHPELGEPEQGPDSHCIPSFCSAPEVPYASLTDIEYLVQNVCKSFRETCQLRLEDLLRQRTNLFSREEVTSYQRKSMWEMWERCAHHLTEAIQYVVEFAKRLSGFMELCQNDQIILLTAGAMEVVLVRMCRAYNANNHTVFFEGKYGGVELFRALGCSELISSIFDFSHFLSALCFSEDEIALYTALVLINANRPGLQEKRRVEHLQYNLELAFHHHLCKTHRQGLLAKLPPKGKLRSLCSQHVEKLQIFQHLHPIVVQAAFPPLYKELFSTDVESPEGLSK
Assay: Dual luciferase reporter assay of Rorγt transcriptional activity in EL4 cells
Type: cell-based
Conditions: EL4 cells, CD5L-RV 100 ng; ligand 5, 0.5 or 0.05 uM
Procedure: Cells and supernatant were harvested at 96 hours and subjected to MS/LC. Three independent mouse experiments were performed. […] All ChIP and luciferase assay are representative of at least 3 independent experiments.
Three independent experiments were performed.

CC(CO)CCC[C@@H](C)[C@H]1CC[C@H]2[C@@H]3[C@@H](O)C=C4C[C@@H](O)CC[C@]4(C)[C@H]3CC[C@]12C (stereo partly drawn) [7β, 27-dihydroxycholesterol] was tested, and the “Il17 reporter transcription (luciferase)” value was “rescued the CD5L-driven suppression of Il17 reporter transcription”.
